Source: patent publication US20070128217A1 (priority 2003, published 2007)

Key:
[1] = test system: antibodies in sera from SARS patients (sera 1a, 1b, 2, 6, 37, 62, London, SARS-yellow, SARS-green); type: binding, human; set-up: Binding of serum 6 to linear peptides of protein X1 of SARS-CoV Urbani / Binding of serum 37 to linear peptides of protein X1 of SARS-CoV Urbani / Binding of serum 6 to looped/cyclic peptide (PEPSCAN-ELISA) / Binding of serum 37 to looped/cyclic peptide (PEPSCAN-ELISA) / Binding of serum 37 to looped/cyclic peptides of protein X1 of SARS-CoV Urbani / Binding of serum 6 to linear peptides of protein X2 / Binding of serum 37 to linear peptides of protein X2 / Binding of serum 37 to looped/cyclic peptides of protein X2 of SARS-CoV Urbani / Binding of serum 6 to linear peptides of protein M of SARS-CoV Urbani / Binding of serum 37 to linear peptides of protein M of SARS-CoV Urbani / Binding of serum 6 to looped/cyclic peptides of protein M of SARS-CoV Urbani / Binding of serum 37 to looped/cyclic peptides of protein M of SARS-CoV Urbani / Binding of serum 6 to linear peptides of protein X3 of SARS-CoV Urbani / Binding of serum 37 to linear peptides of protein X3 of SARS-CoV Urbani / Binding of serum 37 to looped/cyclic peptides of protein X3 of SARS-CoV Urbani / Binding of serum 6 to linear peptides of protein X4 of SARS-CoV Urbani / Binding of serum 37 to linear peptides of protein X4 of SARS-CoV Urbani / Binding of serum 37 to looped/cyclic peptides of protein X4 of SARS-CoV Urbani / Binding of serum 6 to linear peptides of protein X5 of SARS-CoV Urbani / Binding of serum 37 to linear peptides of protein X5 of SARS-CoV Urbani / Binding of serum 37 to looped/cyclic peptides of protein X5 of SARS-CoV Urbani / Binding of serum 6 to linear peptides of protein N of SARS-CoV Urbani / Binding of serum 37 to linear peptides of protein N of SARS-CoV Urbani / Binding of serum 6 to linear peptide (PEPSCAN-ELISA) / Binding of serum 1a to looped/cyclic peptides of protein N of SARS-CoV Urbani / Binding of serum 1b to looped/cyclic peptides of protein N of SARS-CoV Urbani / Binding of serum 2 to looped/cyclic peptides of protein N of SARS-CoV Urbani / Binding of serum 6 to looped/cyclic peptides of protein N of SARS-CoV Urbani / Binding of serum 37 to looped/cyclic peptides of protein N of SARS-CoV Urbani / Binding of serum 62 to looped/cyclic peptides of protein N of SARS-CoV Urbani / Binding of serum London to looped/cyclic peptides of protein N of SARS-CoV Urbani / Binding of serum SARS-green to looped/cyclic peptides of protein N of SARS-CoV Urbani: unit not given here
[2] = test system: control sera (pooled serum of ten healthy LUMC hospital workers; commercial negative donor pooled serum from the Dutch bloodbank); type: binding, human; set-up: Binding of Control serum LUMC to linear peptides / Binding of Control serum Blood-bank to linear peptides / Binding of Control serum LUMC to looped peptides / Binding of Control Serum Blood-Bank to Looped peptides / Binding of Control serum LUMC to linear peptides of the protein M of SARS-CoV Urbani / Binding of Control serum Blood-bank to linear peptides of the protein M of SARS-CoV Urbani / Binding of Control serum LUMC to looped peptides of the protein M of SARS-CoV Urbani / Binding of Control Serum Blood-Bank to Looped peptides of the protein M of SARS-CoV Urbani: unit not given here
[3] = test system: rabbit serum obtained by immunizing a rabbit with the SARS-CoV strain Frankfurt 1; type: binding; set-up: Binding of a rabbit serum to linear peptides / Binding of a rabbit serum to looped peptides / Rabbit serum linear peptides / Rabbit serum looped peptides / Binding of a rabbit serum to linear peptides of protein N of SARS-CoV Urbani (Rabbit serum linear peptides) / Binding of a rabbit serum to looped/cyclic peptides of protein N of SARS-CoV Urbani (Rabbit serum looped peptides): unit not given here

VVILRIGTQVLKTMS
Binding of serum 1a to linear peptides of protein X2 [1]: 0.6
Binding of serum 1a to looped/cyclic peptides of protein X2 of SARS-CoV Urbani [1]: 0.4
Binding of serum 1b to linear peptides of protein X2 [1]: 0.5
Binding of serum 1b to looped/cyclic peptides of protein X2 of SARS-CoV Urbani [1]: 0.4
Binding of serum 2 to linear peptides of protein X2 [1]: 0.5
Binding of serum 2 to looped/cyclic peptides of protein X2 of SARS-CoV Urbani [1]: 0.3
Binding of serum 6 to linear peptides of protein X2 [1]: 0.5
Binding of serum 6 to looped/cyclic peptides of protein X2 of SARS-CoV Urbani [1]: 0.3
Binding of serum 37 to linear peptides of protein X2 [1]: 0.6
Binding of serum 37 to looped/cyclic peptides of protein X2 of SARS-CoV Urbani [1]: 0.3
Binding of serum 62 to linear peptides of protein X2 [1]: 0.6
Binding of serum 62 to looped/cyclic peptides of protein X2 of SARS-CoV Urbani [1]: 0.4
Binding of serum London to linear peptides of protein X2 [1]: 0.4
Binding of serum London to looped/cyclic peptides of protein X2 of SARS-CoV Urbani [1]: 0.2
Binding of serum SARS-green to linear peptides of protein X2 [1]: 0.5
Binding of serum SARS-green to looped/cyclic peptides of protein X2 of SARS-CoV Urbani [1]: 0.3
Binding of serum SARS-yellow to linear peptides of protein X2 [1]: 0.6
Binding of serum SARS-yellow to looped/cyclic peptides of protein X2 of SARS-CoV Urbani [1]: 0.4
Binding of Control Serum Blood-Bank to Looped peptides [2]: 0.3
Binding of Control serum Blood-bank to linear peptides [2]: 0.7
Binding of Control serum LUMC to linear peptides [2]: 0.5
Binding of Control serum LUMC to looped peptides [2]: 0.3
Binding of a rabbit serum to linear peptides [3]: 0.4
Binding of a rabbit serum to looped peptides [3]: 0.4

VVVHGYFTEVYYQLE
Binding of serum 1a to linear peptides of protein X1 of SARS-CoV Urbani [1]: 0.8
Binding of serum 1a to looped/cyclic peptides of protein X1 of SARS-CoV Urbani [1]: 0.6
Binding of serum 1b to linear peptides of protein X1 of SARS-CoV Urbani [1]: 0.6
Binding of serum 1b to looped/cyclic peptides of protein X1 of SARS-CoV Urbani [1]: 0.5
Binding of serum 2 to linear peptides of protein X1 of SARS-CoV Urbani [1]: 0.6
Binding of serum 2 to looped/cyclic peptides of protein X1 of SARS-CoV Urbani [1]: 0.5
Binding of serum 6 to linear peptides of protein X1 of SARS-CoV Urbani [1]: 0.4
Binding of serum 6 to looped/cyclic peptides of protein X1 of SARS-CoV Urbani [1]: 0.3
Binding of serum 37 to linear peptides of protein X1 of SARS-CoV Urbani [1]: 0.6
Binding of serum 37 to looped/cyclic peptides of protein X1 of SARS-CoV Urbani [1]: 0.5
Binding of serum 62 to linear peptides of protein X1 of SARS-CoV Urbani [1]: 0.4
Binding of serum 62 to looped/cyclic peptides of protein X1 of SARS-CoV Urbani [1]: 0.5
Binding of serum London to linear peptides of protein X1 of SARS-CoV Urbani [1]: 0.2
Binding of serum London to looped/cyclic peptides of protein X1 of SARS-CoV Urbani [1]: 0.2
Binding of serum SARS-green to linear peptides of protein X1 of SARS-CoV Urbani [1]: 0.3
Binding of serum SARS-green to looped/cyclic peptides of protein X1 of SARS-CoV Urbani [1]: 0.3
Binding of serum SARS-yellow to linear peptides of protein X1 of SARS-CoV Urbani [1]: 0.3
Binding of serum SARS-yellow to looped/cyclic peptides of protein X1 of SARS-CoV Urbani [1]: 0.4
Binding of Control Serum Blood-Bank to Looped peptides [2]: 0.4
Binding of Control serum Blood-bank to linear peptides [2]: 0.5
Binding of Control serum LUMC to linear peptides [2]: 1.1
Binding of Control serum LUMC to looped peptides [2]: 0.7
Binding of a rabbit serum to linear peptides [3]: 0.1
Binding of a rabbit serum to looped peptides [3]: 0.6

VYHITVSQIQLSLLK
Binding of serum 1a to linear peptides of protein X2 [1]: 0.6
Binding of serum 1a to looped/cyclic peptides of protein X2 of SARS-CoV Urbani [1]: 0.5
Binding of serum 1b to linear peptides of protein X2 [1]: 0.5
Binding of serum 1b to looped/cyclic peptides of protein X2 of SARS-CoV Urbani [1]: 0.2
Binding of serum 2 to linear peptides of protein X2 [1]: 0.5
Binding of serum 2 to looped/cyclic peptides of protein X2 of SARS-CoV Urbani [1]: 0.2
Binding of serum 6 to linear peptides of protein X2 [1]: 0.5
Binding of serum 6 to looped/cyclic peptides of protein X2 of SARS-CoV Urbani [1]: 0.6
Binding of serum 37 to linear peptides of protein X2 [1]: 0.7
Binding of serum 37 to looped/cyclic peptides of protein X2 of SARS-CoV Urbani [1]: 0.4
Binding of serum 62 to linear peptides of protein X2 [1]: 0.4
Binding of serum 62 to looped/cyclic peptides of protein X2 of SARS-CoV Urbani [1]: 0.6
Binding of serum London to linear peptides of protein X2 [1]: 0.4
Binding of serum London to looped/cyclic peptides of protein X2 of SARS-CoV Urbani [1]: 1.3
Binding of serum SARS-green to linear peptides of protein X2 [1]: 0.2
Binding of serum SARS-green to looped/cyclic peptides of protein X2 of SARS-CoV Urbani [1]: 0.3
Binding of serum SARS-yellow to linear peptides of protein X2 [1]: 0.7
Binding of serum SARS-yellow to looped/cyclic peptides of protein X2 of SARS-CoV Urbani [1]: 0.3
Binding of Control Serum Blood-Bank to Looped peptides [2]: 0.6
Binding of Control serum Blood-bank to linear peptides [2]: 0.5
Binding of Control serum LUMC to linear peptides [2]: 0.7
Binding of Control serum LUMC to looped peptides [2]: 0.4
Binding of a rabbit serum to linear peptides [3]: 0.9
Binding of a rabbit serum to looped peptides [3]: 0.4

VYRINWVTGGIAIAM
Binding of serum 1a to linear peptides of protein M of SARS-CoV Urbani [1]: 0.9
Binding of serum 1a to looped/cyclic peptides of protein M of SARS-CoV Urbani [1]: 0.7
Binding of serum 1b to linear peptides of protein M of SARS-CoV Urbani [1]: 0.8
Binding of serum 1b to looped/cyclic peptides of protein M of SARS-CoV Urbani [1]: 0.4
Binding of serum 2 to linear peptides of protein M of SARS-CoV Urbani [1]: 0.8
Binding of serum 2 to looped/cyclic peptides of protein M of SARS-CoV Urbani [1]: 0.6
Binding of serum 6 to linear peptides of protein M of SARS-CoV Urbani [1]: 1.0
Binding of serum 6 to looped/cyclic peptides of protein M of SARS-CoV Urbani [1]: 0.5
Binding of serum 37 to linear peptides of protein M of SARS-CoV Urbani [1]: 0.6
Binding of serum 37 to looped/cyclic peptides of protein M of SARS-CoV Urbani [1]: 0.7
Binding of serum 62 to linear peptides of protein M of SARS-CoV Urbani [1]: 0.6
Binding of serum 62 to looped/cyclic peptides of protein M of SARS-CoV Urbani [1]: 1.1
Binding of serum London to linear peptides of protein M of SARS-CoV Urbani [1]: 0.6
Binding of serum London to looped/cyclic peptides of protein M of SARS-CoV Urbani [1]: 0.2
Binding of serum SARS-green to linear peptides of protein M of SARS-CoV Urbani [1]: 0.7
Binding of serum SARS-green to looped/cyclic peptides of protein M of SARS-CoV Urbani [1]: 0.3
Binding of serum SARS-yellow to linear peptides of protein M of SARS-CoV Urbani [1]: 0.3
Binding of serum SARS-yellow to looped/cyclic peptides of protein M of SARS-CoV Urbani [1]: 0.8
Binding of Control Serum Blood-Bank to Looped peptides of the protein M of SARS-CoV Urbani [2]: 0.7
Binding of Control serum Blood-bank to linear peptides of the protein M of SARS-CoV Urbani [2]: 0.7
Binding of Control serum LUMC to linear peptides of the protein M of SARS-CoV Urbani [2]: 1.0
Binding of Control serum LUMC to looped peptides of the protein M of SARS-CoV Urbani [2]: 0.8
Rabbit serum linear peptides [3]: 0.3
Rabbit serum looped peptides [3]: 0.4
